# Source: ChEMBL document CHEMBL3862012, “Methylene versus carbonyl bridge in the structure of new tubulin polymerization inhibitors with tricyclic A-rings” (Bioorg Med Chem, 2016)
# Species on record: Ovis aries
# Assay: Inhibition of sheep brain tubulin polymerization at 100 uM by DAPI staining-based fluorimetric method relative to control
# Conditions: not given
row,Compound,inhibition [%]
1,COc1ccc(CN2c3ccccc3Sc3ccccc32)cc1O,64

# Tested on: not listed separately
# Assay: Cytotoxicity against human CCRF-CEM cells assessed as growth inhibition at 10 uM after 48 hrs by SRB assay relative to control
# Type: functional
# Conditions: read-out: GI
row,Compound,inhibition of growth at 10 µM [%]
1,COc1ccc(CN2c3ccccc3Sc3ccccc32)cc1O,92

# Tested on: not listed separately
# Assay: Cytotoxicity against human HL-60(TB) cells assessed as growth inhibition at 10 uM after 48 hrs by SRB assay relative to control
# Type: functional
# Conditions: HL-60, 48 h, read-out: GI
row,Compound,inhibition of growth at 10 µM [%]
1,COc1ccc(CN2c3ccccc3Sc3ccccc32)cc1O,79

# Tested on: not listed separately
# Assay: Cytotoxicity against human MOLT4 cells assessed as growth inhibition at 10 uM after 48 hrs by SRB assay relative to control
# Type: functional
# Conditions: MOLT-4, 48 h, read-out: GI
row,Compound,inhibition of growth at 10 µM [%]
1,COc1ccc(CN2c3ccccc3Sc3ccccc32)cc1O,82

# Tested on: not listed separately
# Assay: Cytotoxicity against human SR cells assessed as growth inhibition at 10 uM after 48 hrs by SRB assay relative to control
# Type: functional
# Conditions: read-out: GI
row,Compound,inhibition of growth at 10 µM [%]
1,COc1ccc(CN2c3ccccc3Sc3ccccc32)cc1O,84

# Tested on: not listed separately
# Assay: Cytotoxicity against human A549 cells assessed as growth inhibition at 10 uM after 48 hrs by SRB assay relative to control
# Type: functional
# Conditions: A549, 48 h, read-out: GI
row,Compound,inhibition of growth at 10 µM [%]
1,COc1ccc(CN2c3ccccc3Sc3ccccc32)cc1O,86

# Tested on: not listed separately
# Assay: Cytotoxicity against human EKVX cells assessed as growth inhibition at 10 uM after 48 hrs by SRB assay relative to control
# Type: functional
# Conditions: read-out: GI
row,Compound,inhibition of growth at 10 µM [%]
1,COc1ccc(CN2c3ccccc3Sc3ccccc32)cc1O,63

# Tested on: not listed separately
# Assay: Cytotoxicity against human HOP62 cells assessed as growth inhibition at 10 uM after 48 hrs by SRB assay relative to control
# Type: functional
# Conditions: HOP-62, 48 h, read-out: GI
row,Compound,inhibition of growth at 10 µM [%]
1,COc1ccc(CN2c3ccccc3Sc3ccccc32)cc1O,64

# Tested on: not listed separately
# Assay: Cytotoxicity against human HOP92 cells assessed as growth inhibition at 10 uM after 48 hrs by SRB assay relative to control
# Type: functional
# Conditions: HOP-92, 48 h, read-out: GI
row,Compound,inhibition of growth at 10 µM [%]
1,COc1ccc(CN2c3ccccc3Sc3ccccc32)cc1O,50

# Tested on: not listed separately
# Assay: Cytotoxicity against human NCI-H226 cells assessed as growth inhibition at 10 uM after 48 hrs by SRB assay relative to control
# Type: functional
# Conditions: NCI-H226, 48 h, read-out: GI
row,Compound,inhibition of growth at 10 µM [%]
1,COc1ccc(CN2c3ccccc3Sc3ccccc32)cc1O,29

# Tested on: not listed separately
# Assay: Cytotoxicity against human NCI-H23 cells assessed as growth inhibition at 10 uM after 48 hrs by SRB assay relative to control
# Type: functional
# Conditions: NCI-H23, 48 h, read-out: GI
row,Compound,inhibition of growth at 10 µM [%]
1,COc1ccc(CN2c3ccccc3Sc3ccccc32)cc1O,63

# Tested on: not listed separately
# Assay: Cytotoxicity against human NCI-H322M cells assessed as growth inhibition at 10 uM after 48 hrs by SRB assay relative to control
# Type: functional
# Conditions: read-out: GI
row,Compound,inhibition of growth at 10 µM [%]
1,COc1ccc(CN2c3ccccc3Sc3ccccc32)cc1O,67

# Tested on: not listed separately
# Assay: Cytotoxicity against human NCI-H460 cells assessed as growth inhibition at 10 uM after 48 hrs by SRB assay relative to control
# Type: functional
# Conditions: NCI-H460, 48 h, read-out: GI
row,Compound,inhibition of growth at 10 µM [%]
1,COc1ccc(CN2c3ccccc3Sc3ccccc32)cc1O,90

# Tested on: not listed separately
# Assay: Cytotoxicity against human HCT116 cells assessed as growth inhibition at 10 uM after 48 hrs by SRB assay relative to control
# Type: functional
# Conditions: HCT-116, 48 h, read-out: GI
row,Compound,inhibition of growth at 10 µM [%]
1,COc1ccc(CN2c3ccccc3Sc3ccccc32)cc1O,87

# Tested on: not listed separately
# Assay: Cytotoxicity against human KM12 cells assessed as growth inhibition at 10 uM after 48 hrs by SRB assay relative to control
# Type: functional
# Conditions: KM12, 48 h, read-out: GI
row,Compound,inhibition of growth at 10 µM [%]
1,COc1ccc(CN2c3ccccc3Sc3ccccc32)cc1O,82

# Tested on: not listed separately
# Assay: Cytotoxicity against human SF295 cells assessed as growth inhibition at 10 uM after 48 hrs by SRB assay relative to control
# Type: functional
# Conditions: SF-295, 48 h, read-out: GI
row,Compound,inhibition of growth at 10 µM [%]
1,COc1ccc(CN2c3ccccc3Sc3ccccc32)cc1O,96

# Tested on: not listed separately
# Assay: Cytotoxicity against human SF539 cells assessed as growth inhibition at 10 uM after 48 hrs by SRB assay relative to control
# Type: functional
# Conditions: SF-539, 48 h, read-out: GI
row,Compound,inhibition of growth at 10 µM [%]
1,COc1ccc(CN2c3ccccc3Sc3ccccc32)cc1O,100

# Tested on: not listed separately
# Assay: Cytotoxicity against human SNB75 cells assessed as growth inhibition at 10 uM after 48 hrs by SRB assay relative to control
# Type: functional
# Conditions: SNB-75, 48 h, read-out: GI
row,Compound,inhibition of growth at 10 µM [%]
1,COc1ccc(CN2c3ccccc3Sc3ccccc32)cc1O,73

# Tested on: not listed separately
# Assay: Cytotoxicity against human U251 cells assessed as growth inhibition at 10 uM after 48 hrs by SRB assay relative to control
# Type: functional
# Conditions: U-251, 48 h, read-out: GI
row,Compound,inhibition of growth at 10 µM [%]
1,COc1ccc(CN2c3ccccc3Sc3ccccc32)cc1O,82

# Tested on: not listed separately
# Assay: Cytotoxicity against human MALME-3M cells assessed as growth inhibition at 10 uM after 48 hrs by SRB assay relative to control
# Type: functional
# Conditions: read-out: GI
row,Compound,inhibition of growth at 10 µM [%]
1,COc1ccc(CN2c3ccccc3Sc3ccccc32)cc1O,28

# Tested on: not listed separately
# Assay: Cytotoxicity against human M14 cells assessed as growth inhibition at 10 uM after 48 hrs by SRB assay relative to control
# Type: functional
# Conditions: M14, 48 h, read-out: GI
row,Compound,inhibition of growth at 10 µM [%]
1,COc1ccc(CN2c3ccccc3Sc3ccccc32)cc1O,86

# Tested on: not listed separately
# Assay: Cytotoxicity against human MDA-MB-435 cells assessed as growth inhibition at 10 uM after 48 hrs by SRB assay relative to control
# Type: functional
# Conditions: MDA-MB-435, 48 h, read-out: GI
row,Compound,inhibition of growth at 10 µM [%]
1,COc1ccc(CN2c3ccccc3Sc3ccccc32)cc1O,99

# Tested on: not listed separately
# Assay: Cytotoxicity against human OVCAR3 cells assessed as growth inhibition at 10 uM after 48 hrs by SRB assay relative to control
# Type: functional
# Conditions: OVCAR-3, 48 h, read-out: GI
row,Compound,inhibition of growth at 10 µM [%]
1,COc1ccc(CN2c3ccccc3Sc3ccccc32)cc1O,93

# Tested on: not listed separately
# Assay: Cytotoxicity against human NCI-ADR-RES cells assessed as growth inhibition at 10 uM after 48 hrs by SRB assay relative to control
# Type: functional
# Conditions: read-out: GI
row,Compound,inhibition of growth at 10 µM [%]
1,COc1ccc(CN2c3ccccc3Sc3ccccc32)cc1O,82

# Tested on: not listed separately
# Assay: Cytotoxicity against human SKOV3 cells assessed as growth inhibition at 10 uM after 48 hrs by SRB assay relative to control
# Type: functional
# Conditions: SK-OV-3, 48 h, read-out: GI
row,Compound,inhibition of growth at 10 µM [%]
1,COc1ccc(CN2c3ccccc3Sc3ccccc32)cc1O,71

# Tested on: not listed separately
# Assay: Cytotoxicity against human 786-0 cells assessed as growth inhibition at 10 uM after 48 hrs by SRB assay relative to control
# Type: functional
# Conditions: 786-0, 48 h, read-out: GI
row,Compound,inhibition of growth at 10 µM [%]
1,COc1ccc(CN2c3ccccc3Sc3ccccc32)cc1O,57

# Tested on: not listed separately
# Assay: Cytotoxicity against human A498 cells assessed as growth inhibition at 10 uM after 48 hrs by SRB assay relative to control
# Type: functional
# Conditions: A498, 48 h, read-out: GI
row,Compound,inhibition of growth at 10 µM [%]
1,COc1ccc(CN2c3ccccc3Sc3ccccc32)cc1O,24

# Tested on: not listed separately
# Assay: Cytotoxicity against human Caki1 cells assessed as growth inhibition at 10 uM after 48 hrs by SRB assay relative to control
# Type: functional
# Conditions: CAKI-1, 48 h, read-out: GI
row,Compound,inhibition of growth at 10 µM [%]
1,COc1ccc(CN2c3ccccc3Sc3ccccc32)cc1O,64

# Tested on: not listed separately
# Assay: Cytotoxicity against human RXF393 cells assessed as growth inhibition at 10 uM after 48 hrs by SRB assay relative to control
# Type: functional
# Conditions: RXF 393, 48 h, read-out: GI
row,Compound,inhibition of growth at 10 µM [%]
1,COc1ccc(CN2c3ccccc3Sc3ccccc32)cc1O,100

# Tested on: not listed separately
# Assay: Cytotoxicity against human TK10 cells assessed as growth inhibition at 10 uM after 48 hrs by SRB assay relative to control
# Type: functional
# Conditions: TK-10, 48 h, read-out: GI
row,Compound,inhibition of growth at 10 µM [%]
1,COc1ccc(CN2c3ccccc3Sc3ccccc32)cc1O,42

# Tested on: not listed separately
# Assay: Cytotoxicity against human UO31 cells assessed as growth inhibition at 10 uM after 48 hrs by SRB assay relative to control
# Type: functional
# Conditions: UO-31, 48 h, read-out: GI
row,Compound,inhibition of growth at 10 µM [%]
1,COc1ccc(CN2c3ccccc3Sc3ccccc32)cc1O,76

# Tested on: not listed separately
# Assay: Cytotoxicity against human PC3 cells assessed as growth inhibition at 10 uM after 48 hrs by SRB assay relative to control
# Type: functional
# Conditions: PC-3, 48 h, read-out: GI
row,Compound,inhibition of growth at 10 µM [%]
1,COc1ccc(CN2c3ccccc3Sc3ccccc32)cc1O,74

# Tested on: not listed separately
# Assay: Cytotoxicity against human DU145 cells assessed as growth inhibition at 10 uM after 48 hrs by SRB assay relative to control
# Type: functional
# Conditions: DU-145, 48 h, read-out: GI
row,Compound,inhibition of growth at 10 µM [%]
1,COc1ccc(CN2c3ccccc3Sc3ccccc32)cc1O,82

# Tested on: not listed separately
# Assay: Cytotoxicity against human MCF7 cells assessed as growth inhibition at 10 uM after 48 hrs by SRB assay relative to control
# Type: functional
# Conditions: MCF7, 48 h, read-out: GI
row,Compound,inhibition of growth at 10 µM [%]
1,COc1ccc(CN2c3ccccc3Sc3ccccc32)cc1O,74

# Tested on: not listed separately
# Assay: Cytotoxicity against human MDA-MB-231 cells assessed as growth inhibition at 10 uM after 48 hrs by SRB assay relative to control
# Type: functional
# Conditions: MDA-MB-231, 48 h, read-out: GI
row,Compound,inhibition of growth at 10 µM [%]
1,COc1ccc(CN2c3ccccc3Sc3ccccc32)cc1O,59

# Tested on: not listed separately
# Assay: Cytotoxicity against human BT549 cells assessed as growth inhibition at 10 uM after 48 hrs by SRB assay relative to control
# Type: functional
# Conditions: BT-549, 48 h, read-out: GI
row,Compound,inhibition of growth at 10 µM [%]
1,COc1ccc(CN2c3ccccc3Sc3ccccc32)cc1O,45

# Tested on: not listed separately
# Assay: Cytotoxicity against human T47D cells assessed as growth inhibition at 10 uM after 48 hrs by SRB assay relative to control
# Type: functional
# Conditions: read-out: GI
row,Compound,inhibition of growth at 10 µM [%]
1,COc1ccc(CN2c3ccccc3Sc3ccccc32)cc1O,73

# Tested on: not listed separately
# Assay: Cytotoxicity against human MDA-MB-468 cells assessed as growth inhibition at 10 uM after 48 hrs by SRB assay relative to control
# Type: functional
# Conditions: MDA-MB-468, 48 h, read-out: GI
row,Compound,inhibition of growth at 10 µM [%]
1,COc1ccc(CN2c3ccccc3Sc3ccccc32)cc1O,91
